The values that follow come from paper PMC12366525, “Characterization of allosteric modulators that disrupt androgen receptor co-activator protein-protein interactions to alter transactivation–Drug leads for metastatic castration resistant prostate cancer” (SLAS discovery : advancing life sciences R & D, 2023).

Read-outs that look alike come from different tables or passages of the source.

The target of one experiment is T1, AR-LBD and TIF2 (Homo sapiens, UniProt P10275).
T1 construct: AR-LBD amino acids 658–919 expressed as a fusion protein with Gal4-DBD; expressed in transfected cells; host or cells: HEK 293
T1 sequence (P10275 658-919): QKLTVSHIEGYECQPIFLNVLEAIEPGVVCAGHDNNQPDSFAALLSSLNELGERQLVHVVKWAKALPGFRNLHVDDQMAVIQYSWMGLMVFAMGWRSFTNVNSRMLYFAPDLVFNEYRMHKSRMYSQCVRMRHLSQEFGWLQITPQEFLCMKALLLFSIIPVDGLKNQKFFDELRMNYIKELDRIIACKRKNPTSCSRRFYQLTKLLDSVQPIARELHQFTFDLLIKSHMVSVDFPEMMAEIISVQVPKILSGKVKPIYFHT
Description: TIF2 mammalian 2-hybrid (M2H) assay. The class given is cell-based. To be noted: for IC50: HEK 293 cells, 25 nM DHT, 27 h compound exposure, read-out: M2H AR-TIF2 CoA Recruitment IC50. From the text:
The 5xGAL4-TATA-luciferase reporter plasmid was a gift from Dr. Richard Maurer from the Oregon Health and Science University, and constructs pGAL4-hAR-658–919 (AR-LBD amino acids 658–919 expressed as a fusion protein with Gal4-DBD), pVP16-SRC1 (full--length SRC1 expressed as a fusion with VP16 activation domain) and pVP16-Empty vector were kindly provided to us by Dr. Elizabeth Wilson, from UNC Chapel Hill. pVP16-TIF2 was generated as described previously. HEK 293 cells were transiently co-transfected with 5 ng of pGal4-AR-LBD, 10 ng of either pVP16-TIF2 or pVP16-SRC1, and 20 ng of the 5xGal4-TATA-Luc reporter as described previously. HEK 293 cells were bulk co-transfected with the three plasmids that had been individually incubated with Fugene 6 at a 3:1 ratio for 25 min at room temperature (RT) in serum free media (SFM) and then combined with HEK 293 cells that were suspended in DMEM (Cellgro10013CV) with 2 mM L-glutamine (Invitrogen) that was supplemented with 10% fetal bovine serum, and 5000 cells in a volume of 40 μL were seeded into the wells of white opaque 384-well assay plates (Greiner Bio-one, #781080) and cultured overnight at 37 °C, 5% CO2, and 95% humidity. […] 25 μL of BrightGlo® reagent was added to the plate and the relative luminescence units (RLUs) were captured on a SpectraMax M5e microtiter plate reader (Molecular Devices, LLC, San Jose, CA).

Another experiment concerns DU-145 cells. As to the kind of experiment: Prostate cancer cell line growth inhibition assay, DU-145. The class given is cell-based. To be noted: read-out: DU145 GI50 (AR−). On the procedure:
The PC-3, DU-145, LNCaP, C4–2, and 22Rv1 PC cell line growth inhibition assays have been described previously. On day 1, each PC cell line was harvested, counted, and seeded into two 384-well assay plates, a time zero (T0) and a time 72 h (T72) plate. PC cell lines were all seeded at 1000 cells per well in 45 μL of tissue culture media in uncoated white clear bottom 384-well assay plates (VWR, # 82050–076) using a Matrix electronic multichannel pipette (Thermo Fisher Scientific, Waltham, MA) and cultured overnight at 37 °C, 5% CO2, and 95% humidity. On day 2, 25 μL of the Cell Titer Glo (CTG) (Promega Corporation, Madison, WI) detection reagent was dispensed into the wells of the T0 assay plate using a Matrix electronic multichannel pipette, and the RLUs were captured on the SpectraMax M5e (Molecular Devices LLC, Sunnyvale, CA) microtiter plate reader. Also on day 2, 5 μL of compounds were transferred into the test wells of the T72 384-well assay plates which were returned to the incubator for 72 h. Control wells received DMSO alone. On day 5, 25 μL of the CTG detection reagent was dispensed into the wells of the T72 assay plate using a Matrix electronic multichannel pipette, and the RLU’s were captured on the SpectraMax M5e microtiter plate reader platform.
In 384-well assays, DMSO minimum (n = 32) and maximum (n = 32) plate control wells were utilized to calculate signal-to-background ratios (S:B) and Z’-factor coefficient assay performance quality control statistics, and to normalize the signals of compound treated wells and to represent 0% and 100% respectively. For the 96-well AR-LBD H^3-DHT radioligand binding assay, eight minimum and maximum plate control wells were utilized to normalize the data. For the PC cell line growth inhibition assays we used the DMSO control data from the T0 and T72 assay plates to assess the dynamic range of the T0 to T72 cell growth, and to calculate S:B ratios and Z’-factor coefficient statistics for the assay signal window (T0 to T72). To normalize the 72 h compound exposure PC growth inhibition data, the signals from the compound treated wells were processed and expressed as% of the T72 DMSO plate controls. IC50 and GI50 values for each of the bioassays were calculated using Graph-Pad Prism 9 software to plot and fit data to curves using the Sigmoidal dose response variable slope equation Y = Bottom + [Top-Bottom]/ [1 + 10^^(LogEC50-X)*HillSlope].

The IC50 is the concentration that gives 50% inhibition. By GI50 is commonly meant the concentration at which growth is held to half of that of the control. Turning to `Cc1ccccc1-c1cc(O)c2c(c1)CN(c1nc(C(N)=O)cs1)CCO2` [S1–1], on AR-LBD and TIF2, the 50% inhibitory concentration (IC50) was determined as 5.77 µM. The GI50 with DU-145 cells (Homo sapiens, DU-145, 72 h) was greater than 100 µM.

Take `Cc1ccccc1-c1cc(O)c2c(c1)CN(c1nccs1)CCO2` [S1–3]: the IC50 on AR-LBD and TIF2 stood at 7.46 µM. Further, the GI50 in the experiment with DU-145 cells (72 h) was greater than 100 µM.

For the compound `Cc1nsc(NC(=O)N2CCC(Sc3ccccc3C)CC2)n1` [S2–6], the IC50 at AR-LBD and TIF2 worked out at 0.08 µM. The “CoA selectivity, lower IC50 for TIF2 than SRC1” value on AR-LBD and TIF2 (M2H assays) is ~ 5 fold. Also, the 50% growth inhibitory concentration (GI50) in the experiment with DU-145 cells (Homo sapiens, DU-145, 72 h) is greater than 100 µM.

As to `Cc1c(-c2ccccc2F)[nH]c2ccc(CNC(=O)CCc3cn[nH]c3)cc12` [S3–11], on AR-LBD and TIF2, the IC50 is 6.38 µM. Further, the GI50 in the experiment with DU-145 cells (Homo sapiens, DU-145, 72 h) came to 18 µM.

As for `Cc1c(-c2ccccc2F)[nH]c2ccc(CNC(=O)CCc3cnccn3)cc12` [S3–12], the IC50 at AR-LBD and TIF2 was found to be 5.44 µM. Also, in the experiment on DU-145 cells (Homo sapiens, DU-145, 72 h), the GI50 is 6.82 µM.

With `CC(=O)NCCC(=O)NCc1ccc2[nH]c(-c3ccccc3F)c(C)c2c1` [S3–13], on AR-LBD and TIF2, the IC50 worked out at 18 µM. In the experiment on DU-145 cells (Homo sapiens, DU-145, 72 h), the GI50 is greater than 100 µM.

For the compound `Cc1c(-c2ccccc2F)[nH]c2ccc(CNC(=O)c3ccc(CO)o3)cc12` [S3–14], the IC50 at AR-LBD and TIF2 was found to be 2.43 µM. In addition, the GI50 in the experiment on DU-145 cells (Homo sapiens, DU-145, 72 h) was greater than 100 µM.

With `Cc1c(-c2ccc(F)cc2)[nH]c2ccc(CNC(=O)c3ccc(CO)o3)cc12` [S3–15], on AR-LBD and TIF2, the IC50 was found to be 3.32 µM. For the same compound, the GI50 with DU-145 cells (Homo sapiens, DU-145, 72 h) is 24.3 µM.
